# Results from paper PMC10573892, “β-Lactam TRPM8 Antagonists Derived from Phe-Phenylalaninol Conjugates: Structure–Activity Relationships and Antiallodynic Activity” (International Journal of Molecular Sciences, 2023).
# Legend:
# [1] = biological target: T1, hTRPA1 (Homo sapiens, UniProt O75762); assay: TRPA1 channel Ca2+ microfluorimetry (allylisothiocyanate 10 μM); type: cell-based; details: agonist allylisothiocyanate 10 μM
# T1 construct: Eurofins-CEREP or Eurofins-PANLABS (contract assay)
# Description: (§1) The effects of compound 34 have been evaluated on different ion channels and receptors implicated in pain-related processes to assess the selectivity for TRPM8 channels. First, some TRP channels that play a role in temperature integration and nociception were selected, including hTRPV1, hTRPV3, hTRPA1 and TRPM3. Additionally, the evaluation encompassed the hASIC3 channel with widespread distribution within the peripheral nervous system and contributions to the excitability of primary sensory neurons. In each instance, the compound was subjected to evaluation at a consistent concentration of 10 µM.
# (§2) Calcium fluorometry, Patch-Clamp assays and in vivo experiments were performed using the methodology previously described for TRPM8 [35] or TRPM3 [61]. In the Patch -Clamp experiments, the intracellular pipette solution contained (in mM) 140 KCl, 5 EGTA, and 10 mM HEPES, adjusted to pH 7.2 with KOH, and the extracellular solution contained (in mM) 140 NaCl, 2 CaCl2, 1 MgCl2, 10 D-glucose and 10 HEPES, adjusted to pH 7.4 with NaOH. Selectivity against TRPV1, TRPV3, TRPA1 and ASIC3 was subcontracted to Eurofins-CEREP or Eurofins-PANLABS (see ref. [35] for more details).
# [2] = biological target: T2, hTRPM8 (Homo sapiens, UniProt Q7Z2W7); assay: Ca2+ microfluorimetry in HEK293 cells expressing human TRPM8; type: cell-based; details: activation by 100 µM menthol; read-out: Ca^2+ Microfluorimetry Assays hTRPM8 IC50
# T2 construct: expressed in transfected cells; host or cells: HEK293
# Experimental: To further characterize this family of compounds, calcium microfluorimetry assays were conducted using the HEK293 cell line, which expresses the human isoform of the TRPM8 channel. Amide derivatives 34 and 35 were selected, and their outcomes were compared with those of the model compound 1 (Table 4). […] This behavior is not particular of these β-lactams, but it is similar to those observed for other TRPM8 antagonists.
# as §2
# [3] = biological target: T3, hTRPV3 (Homo sapiens, UniProt Q8NET8); assay: TRPV3 channel Ca2+ microfluorimetry (2-APB 30 μM); type: cell-based; details: agonist 2-APB 30 μM
# T3 construct: Eurofins-CEREP or Eurofins-PANLABS (contract assay)
# T3 sequence (Q8NET8 1-790): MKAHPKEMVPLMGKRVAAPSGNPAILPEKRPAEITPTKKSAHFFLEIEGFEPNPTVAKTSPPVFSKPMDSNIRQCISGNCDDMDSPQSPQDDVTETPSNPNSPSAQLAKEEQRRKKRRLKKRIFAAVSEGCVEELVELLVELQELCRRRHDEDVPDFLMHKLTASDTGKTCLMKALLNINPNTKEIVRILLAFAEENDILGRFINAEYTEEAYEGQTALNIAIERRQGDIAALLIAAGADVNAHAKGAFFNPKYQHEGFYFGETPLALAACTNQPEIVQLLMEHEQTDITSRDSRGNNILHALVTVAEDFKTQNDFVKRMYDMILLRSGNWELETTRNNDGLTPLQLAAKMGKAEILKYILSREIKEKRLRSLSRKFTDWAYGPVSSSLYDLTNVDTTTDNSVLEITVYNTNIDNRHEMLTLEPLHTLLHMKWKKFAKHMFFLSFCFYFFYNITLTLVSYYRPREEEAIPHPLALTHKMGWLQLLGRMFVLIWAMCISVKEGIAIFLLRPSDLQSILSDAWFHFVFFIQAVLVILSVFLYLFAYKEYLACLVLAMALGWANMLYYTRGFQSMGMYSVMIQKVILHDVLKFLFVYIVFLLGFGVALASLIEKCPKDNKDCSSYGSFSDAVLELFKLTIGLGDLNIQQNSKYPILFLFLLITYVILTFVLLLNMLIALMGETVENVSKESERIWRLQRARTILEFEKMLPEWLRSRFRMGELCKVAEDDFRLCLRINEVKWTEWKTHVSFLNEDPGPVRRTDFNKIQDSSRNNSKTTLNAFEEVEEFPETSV
# Description: as §1, §2
# [4] = biological target: T4, rTRPM8 (Rattus norvegicus, UniProt Q8R455); assay: Patch-Clamp electrophysiology on single HEK293 cells expressing rat TRPM8; type: cell-based; details: activation by 100 µM menthol; holding voltage −60 mV
# T4 construct: expressed in transfected cells
# Description: A recent research study using Patch-Clamp, among other techniques, established that menthol occupies a cavity within the TRPM8 S1–S4 transmembrane helix, with the OH group forming an H-bond with the δ-NH of R842 residue, and Van der Waals interactions among the methyl groups of the ^iPr moiety and residues I846 and L843 [41].
# This is evident by a negligible current at negative potentials and a linear intensification of the ohmic current at positive voltages. When applying compound 34 at a concentration of […], a noticeable reduction in menthol-induced activity at depolarizing voltages was observed (indicated by the red line) compared to menthol alone. Dose–response relationships for both tested compounds were established through triplicate experiments at various concentrations, applying a holding voltage of −60 mV (as shown in Figure 2B).
# as §2
# Figure 2 Compound 34 blocks TRPM8-mediated responses evoked by menthol in rTRPM8-expressing HEK293 cells. (A) IV curves obtained after exposure to vehicle solution (green trace), 100 µM menthol (blue trace) and 100 µM menthol + 10 µM 34 (red trace). Peak current data were expressed as pA/pF (to allow comparison among different size cells). Each point is the mean ± SEM of n = 15. (B) Concentration/response curves for rTRPM8 current blockade by 34 at a holding voltage of −60 mV. […]
# [5] = biological target: hM3 (Homo sapiens, UniProt P20309); assay: Radioligand binding at muscarinic M3 receptor; details: radioligand [3H]4-DMAP
# Description: Furthermore, the investigation extended to measuring the binding affinity of compound 34 to calcitonin gene-related peptide hCGRPR, cannabinoid hCB2 and muscarinic hM3 receptors, which are all relevant to different pain conditions.
# T1 sequence (O75762 whole entry): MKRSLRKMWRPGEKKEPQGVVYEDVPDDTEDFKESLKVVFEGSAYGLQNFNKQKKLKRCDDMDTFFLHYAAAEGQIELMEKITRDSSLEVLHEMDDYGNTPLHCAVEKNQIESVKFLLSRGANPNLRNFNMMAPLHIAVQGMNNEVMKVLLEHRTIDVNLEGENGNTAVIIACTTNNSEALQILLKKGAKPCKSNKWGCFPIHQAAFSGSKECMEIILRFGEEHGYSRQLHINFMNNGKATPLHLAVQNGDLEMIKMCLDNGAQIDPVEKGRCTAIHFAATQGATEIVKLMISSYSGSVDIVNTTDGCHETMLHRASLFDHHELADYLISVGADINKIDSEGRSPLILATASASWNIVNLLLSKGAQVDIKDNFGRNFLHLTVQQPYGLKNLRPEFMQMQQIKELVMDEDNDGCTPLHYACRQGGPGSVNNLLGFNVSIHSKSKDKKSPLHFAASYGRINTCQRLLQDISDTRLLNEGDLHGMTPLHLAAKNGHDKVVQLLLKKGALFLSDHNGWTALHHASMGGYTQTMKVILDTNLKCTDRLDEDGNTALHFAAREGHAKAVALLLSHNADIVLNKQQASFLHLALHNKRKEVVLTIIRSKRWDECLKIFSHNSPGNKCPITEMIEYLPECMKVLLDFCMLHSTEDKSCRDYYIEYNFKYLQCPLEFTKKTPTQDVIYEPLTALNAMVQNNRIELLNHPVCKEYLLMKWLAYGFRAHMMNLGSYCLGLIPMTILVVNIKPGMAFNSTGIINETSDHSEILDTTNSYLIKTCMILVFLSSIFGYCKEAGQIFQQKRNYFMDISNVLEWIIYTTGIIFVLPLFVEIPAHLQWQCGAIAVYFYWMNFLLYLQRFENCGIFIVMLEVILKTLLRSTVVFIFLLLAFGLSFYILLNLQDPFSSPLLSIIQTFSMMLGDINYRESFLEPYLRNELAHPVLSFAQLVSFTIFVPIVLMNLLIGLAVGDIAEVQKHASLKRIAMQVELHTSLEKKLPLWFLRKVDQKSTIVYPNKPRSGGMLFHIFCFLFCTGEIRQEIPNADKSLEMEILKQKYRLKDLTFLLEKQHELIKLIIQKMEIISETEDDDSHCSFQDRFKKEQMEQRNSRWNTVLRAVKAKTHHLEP
# T2 sequence (Q7Z2W7 whole entry): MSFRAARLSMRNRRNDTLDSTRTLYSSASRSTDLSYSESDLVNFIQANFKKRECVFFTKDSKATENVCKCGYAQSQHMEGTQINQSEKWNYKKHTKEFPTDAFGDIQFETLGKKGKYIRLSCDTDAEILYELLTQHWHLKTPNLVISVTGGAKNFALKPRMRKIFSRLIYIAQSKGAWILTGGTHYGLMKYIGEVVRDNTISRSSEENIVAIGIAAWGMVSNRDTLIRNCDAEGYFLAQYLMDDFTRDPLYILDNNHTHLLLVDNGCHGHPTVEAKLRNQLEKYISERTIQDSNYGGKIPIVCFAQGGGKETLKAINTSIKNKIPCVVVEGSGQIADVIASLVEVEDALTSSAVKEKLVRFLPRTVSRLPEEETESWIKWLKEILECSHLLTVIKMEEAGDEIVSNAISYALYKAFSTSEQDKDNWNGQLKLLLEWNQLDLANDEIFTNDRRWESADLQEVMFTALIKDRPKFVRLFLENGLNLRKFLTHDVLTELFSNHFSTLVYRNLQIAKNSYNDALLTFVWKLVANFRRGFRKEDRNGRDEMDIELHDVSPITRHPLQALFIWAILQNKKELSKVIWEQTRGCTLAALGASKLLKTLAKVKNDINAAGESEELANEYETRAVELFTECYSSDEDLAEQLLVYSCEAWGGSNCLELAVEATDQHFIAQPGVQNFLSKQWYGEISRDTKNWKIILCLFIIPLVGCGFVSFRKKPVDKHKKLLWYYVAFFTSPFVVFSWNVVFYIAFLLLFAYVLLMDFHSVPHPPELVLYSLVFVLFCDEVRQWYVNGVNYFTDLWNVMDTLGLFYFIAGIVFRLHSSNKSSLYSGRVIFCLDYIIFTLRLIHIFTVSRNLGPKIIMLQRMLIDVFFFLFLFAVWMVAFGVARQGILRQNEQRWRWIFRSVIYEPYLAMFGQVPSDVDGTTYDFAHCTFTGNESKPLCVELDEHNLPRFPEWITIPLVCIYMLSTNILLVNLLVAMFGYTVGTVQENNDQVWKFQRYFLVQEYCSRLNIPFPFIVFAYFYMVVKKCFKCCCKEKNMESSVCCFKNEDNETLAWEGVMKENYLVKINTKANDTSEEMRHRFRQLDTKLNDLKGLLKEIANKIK
# T4 sequence (Q8R455 whole entry): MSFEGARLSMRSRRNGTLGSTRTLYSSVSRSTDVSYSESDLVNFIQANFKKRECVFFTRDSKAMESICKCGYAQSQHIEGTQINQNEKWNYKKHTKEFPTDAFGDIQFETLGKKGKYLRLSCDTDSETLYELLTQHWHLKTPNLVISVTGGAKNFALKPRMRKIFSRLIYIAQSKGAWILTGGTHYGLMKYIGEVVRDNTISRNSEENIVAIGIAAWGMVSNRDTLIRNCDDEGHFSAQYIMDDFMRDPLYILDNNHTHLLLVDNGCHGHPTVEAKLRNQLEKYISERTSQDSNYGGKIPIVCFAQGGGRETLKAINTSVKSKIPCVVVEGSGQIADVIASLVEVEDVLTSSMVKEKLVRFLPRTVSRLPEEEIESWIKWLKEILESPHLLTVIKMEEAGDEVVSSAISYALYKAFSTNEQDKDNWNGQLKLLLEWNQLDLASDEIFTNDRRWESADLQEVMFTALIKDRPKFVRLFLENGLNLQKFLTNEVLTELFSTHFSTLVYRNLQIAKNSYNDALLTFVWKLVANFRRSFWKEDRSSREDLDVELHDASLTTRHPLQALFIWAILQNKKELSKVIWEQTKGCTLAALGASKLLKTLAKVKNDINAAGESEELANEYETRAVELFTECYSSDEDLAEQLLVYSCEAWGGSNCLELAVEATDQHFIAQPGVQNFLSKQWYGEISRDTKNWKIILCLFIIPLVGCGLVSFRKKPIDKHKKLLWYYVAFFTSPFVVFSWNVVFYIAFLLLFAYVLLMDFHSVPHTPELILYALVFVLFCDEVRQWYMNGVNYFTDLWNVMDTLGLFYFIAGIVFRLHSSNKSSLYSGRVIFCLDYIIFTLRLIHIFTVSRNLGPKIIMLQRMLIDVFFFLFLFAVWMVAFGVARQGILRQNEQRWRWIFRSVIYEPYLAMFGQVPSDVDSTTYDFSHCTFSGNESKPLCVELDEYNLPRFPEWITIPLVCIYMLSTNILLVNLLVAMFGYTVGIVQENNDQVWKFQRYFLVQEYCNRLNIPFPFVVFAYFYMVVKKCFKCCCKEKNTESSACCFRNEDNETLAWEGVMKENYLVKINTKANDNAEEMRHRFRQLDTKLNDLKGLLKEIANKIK
# hM3, sequence (P20309 whole entry): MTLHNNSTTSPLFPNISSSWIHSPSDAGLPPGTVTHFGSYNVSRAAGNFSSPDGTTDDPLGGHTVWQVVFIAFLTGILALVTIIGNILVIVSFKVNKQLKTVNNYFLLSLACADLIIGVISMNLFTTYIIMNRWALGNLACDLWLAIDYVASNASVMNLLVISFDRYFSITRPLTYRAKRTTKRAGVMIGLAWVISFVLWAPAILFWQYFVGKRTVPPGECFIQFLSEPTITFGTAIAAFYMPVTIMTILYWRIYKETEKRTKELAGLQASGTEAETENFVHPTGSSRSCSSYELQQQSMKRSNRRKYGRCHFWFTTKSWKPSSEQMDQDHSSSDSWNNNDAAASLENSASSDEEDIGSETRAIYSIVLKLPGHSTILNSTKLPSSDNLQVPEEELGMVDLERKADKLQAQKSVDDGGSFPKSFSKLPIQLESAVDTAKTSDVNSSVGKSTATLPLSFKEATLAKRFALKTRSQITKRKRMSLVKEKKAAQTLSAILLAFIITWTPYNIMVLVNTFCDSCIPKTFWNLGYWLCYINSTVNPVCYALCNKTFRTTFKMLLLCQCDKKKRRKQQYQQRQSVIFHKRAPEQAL
smiles,measurement,setting,value
"CC(C)CNC(=O)[C@]1(Cc2ccccc2)[C@H](C)C(=O)N1C[C@H](Cc1ccccc1)N(Cc1ccccc1)Cc1ccccc1 [Compound 34, 4S-Benzyl-4-[N-(iso-butyl)-carbamoyl]-3S-methyl-1-[(2′S-dibenzylamino-3′-phenyl)prop-1′-yl]-2-oxoazetidine]",inhibition at 10 µM,[1],2 ± 3.4%
same,IC50,[2],2.58 ± 1.24 µM
same,inhibition at 10 µM,[3],17.3 ± 5.7%
same,IC50,[4],0.16 µM
same,inhibition at 10 µM,[5],5.2 ± 3.2%
